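In this assay, cells in 96-well plates receive the compound at five concentrations for 48 hours. Endpoints are linearly interpolated between the surrounding concentrations. TGI marks complete inhibition of growth.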
How the values were obtained:
Experiment in all cases: inhibition of tumour cell growth, NCI panel, 48 h
786-0 renal = system: 786-0 renal
A549 NSCLC = system: A549 NSCLC
ACHN renal = system: ACHN renal
BT-549 breast = system: BT-549 breast
CAKI-1 renal = system: CAKI-1 renal
CCRF-CEM leukemia = system: CCRF-CEM leukemia
COLO 205 colon = system: COLO 205 colon
DU-145 prostate = system: DU-145 prostate
EKVX NSCLC = system: EKVX NSCLC
HCC-2998 colon = system: HCC-2998 colon
HCT-116 colon = system: HCT-116 colon
HCT-15 colon = system: HCT-15 colon
HOP-62 NSCLC = system: HOP-62 NSCLC
HOP-92 NSCLC = system: HOP-92 NSCLC
HT29 colon = system: HT29 colon
IGROV1 ovarian = system: IGROV1 ovarian
K-562 leukemia = system: K-562 leukemia
KM12 colon = system: KM12 colon
LOX IMVI melanoma = system: LOX IMVI melanoma
M14 melanoma = system: M14 melanoma
MALME-3M melanoma = system: MALME-3M melanoma
MCF7 breast = system: MCF7 breast
MDA-MB-231 breast = system: MDA-MB-231 breast
MDA-MB-435 = system: MDA-MB-435
MDA-N = system: MDA-N
MOLT-4 leukemia = system: MOLT-4 leukemia
NCI-H226 lung = system: NCI-H226 lung
NCI-H23 lung = system: NCI-H23 lung
NCI-H460 lung = system: NCI-H460 lung
NCI-H522 lung = system: NCI-H522 lung
NCI/ADR-RES ovarian = system: NCI/ADR-RES ovarian
OVCAR-3 ovarian = system: OVCAR-3 ovarian
OVCAR-4 ovarian = system: OVCAR-4 ovarian
OVCAR-5 ovarian = system: OVCAR-5 ovarian
OVCAR-8 ovarian = system: OVCAR-8 ovarian
PC-3 prostate = system: PC-3 prostate
RPMI-8226 leukemia = system: RPMI-8226 leukemia
RXF 393 renal = system: RXF 393 renal
SF-295 CNS = system: SF-295 CNS
SF-539 CNS = system: SF-539 CNS
SK-MEL-2 melanoma = system: SK-MEL-2 melanoma
SK-MEL-28 melanoma = system: SK-MEL-28 melanoma
SK-MEL-5 melanoma = system: SK-MEL-5 melanoma
SK-OV-3 ovarian = system: SK-OV-3 ovarian
SN12C renal = system: SN12C renal
SNB-19 CNS = system: SNB-19 CNS
SNB-75 CNS = system: SNB-75 CNS
SW-620 colon = system: SW-620 colon
T-47D breast = system: T-47D breast
TK-10 renal = system: TK-10 renal
U251 CNS = system: U251 CNS
UACC-257 melanoma = system: UACC-257 melanoma
UACC-62 melanoma = system: UACC-62 melanoma
UO-31 renal = system: UO-31 renal
A498 renal = system: A498 renal
SF-268 CNS = system: SF-268 CNS
SR leukemia = system: SR leukemia

Measured: TGI

CCN(C(=O)N[C@@H](Cc1ccccc1)C(=O)N[C@@H](CC(C)C)C(=O)NC)c1ccccc1
not listed: A498 renal | SF-268 CNS | SR leukemia
> 100 µM: all other assays above

CC(C)(C)c1cc(COc2cc(COc3ccc(-c4c5c(nc6c4CCc4ccc(-c7c8ccccc8nc8ccccc78)cc4-6)-c4cc(-c6c7ccccc7nc7ccccc67)ccc4CC5)cc3)cc(OCc3cc(C(C)(C)C)cc(C(C)(C)C)c3)c2)cc(C(C)(C)C)c1
not listed: CCRF-CEM leukemia | HT29 colon | IGROV1 ovarian | LOX IMVI melanoma | MOLT-4 leukemia | OVCAR-8 ovarian | RXF 393 renal | SF-539 CNS | SW-620 colon | SR leukemia
> 100 µM: all other assays above

CCOC(=O)c1c(O)cc(=O)[nH]c1N1CCOCC1
not listed: MALME-3M melanoma | MDA-MB-231 breast | NCI-H522 lung | OVCAR-4 ovarian | RXF 393 renal | TK-10 renal | SF-268 CNS
> 100 µM: all other assays above

Source: PubChem BioAssay (NCI)
